Data as given in PubChem BioAssay (NCI).
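These data come from cells grown in 96-well plates and exposed to compound for 48 hours at five concentrations. GI50 marks 50% less growth. TGI is the concentration that stops growth completely.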

Legend:
Experiment in all cases: growth of human tumour cells (NCI), 48 h
786-0 renal = test system: 786-0 renal
A498 renal = test system: A498 renal
ACHN renal = test system: ACHN renal
BT-549 breast = test system: BT-549 breast
CAKI-1 renal = test system: CAKI-1 renal
COLO 205 colon = test system: COLO 205 colon
DU-145 prostate = test system: DU-145 prostate
HCC-2998 colon = test system: HCC-2998 colon
HCT-116 colon = test system: HCT-116 colon
HCT-15 colon = test system: HCT-15 colon
HL-60(TB) leukemia = test system: HL-60(TB) leukemia
HOP-62 NSCLC = test system: HOP-62 NSCLC
HOP-92 NSCLC = test system: HOP-92 NSCLC
HS 578T breast = test system: HS 578T breast
HT29 colon = test system: HT29 colon
IGROV1 ovarian = test system: IGROV1 ovarian
K-562 leukemia = test system: K-562 leukemia
KM12 colon = test system: KM12 colon
LOX IMVI melanoma = test system: LOX IMVI melanoma
M14 melanoma = test system: M14 melanoma
MALME-3M melanoma = test system: MALME-3M melanoma
MCF7 breast = test system: MCF7 breast
MDA-MB-231 breast = test system: MDA-MB-231 breast
MDA-MB-435 = test system: MDA-MB-435
NCI-H23 lung = test system: NCI-H23 lung
NCI-H460 lung = test system: NCI-H460 lung
NCI-H522 lung = test system: NCI-H522 lung
NCI/ADR-RES ovarian = test system: NCI/ADR-RES ovarian
OVCAR-3 ovarian = test system: OVCAR-3 ovarian
OVCAR-4 ovarian = test system: OVCAR-4 ovarian
OVCAR-5 ovarian = test system: OVCAR-5 ovarian
OVCAR-8 ovarian = test system: OVCAR-8 ovarian
PC-3 prostate = test system: PC-3 prostate
RXF 393 renal = test system: RXF 393 renal
SF-268 CNS = test system: SF-268 CNS
SF-295 CNS = test system: SF-295 CNS
SF-539 CNS = test system: SF-539 CNS
SK-MEL-2 melanoma = test system: SK-MEL-2 melanoma
SK-MEL-28 melanoma = test system: SK-MEL-28 melanoma
SK-OV-3 ovarian = test system: SK-OV-3 ovarian
SN12C renal = test system: SN12C renal
SNB-19 CNS = test system: SNB-19 CNS
SNB-75 CNS = test system: SNB-75 CNS
SR leukemia = test system: SR leukemia
SW-620 colon = test system: SW-620 colon
T-47D breast = test system: T-47D breast
TK-10 renal = test system: TK-10 renal
U251 CNS = test system: U251 CNS
UACC-257 melanoma = test system: UACC-257 melanoma
UACC-62 melanoma = test system: UACC-62 melanoma
UO-31 renal = test system: UO-31 renal

What does the source list for NCCCOc1cc2ccccc2cc1C(=O)NCCOc1nc2ccccc2cc1C(=O)Nc1ccc(Cl)cc1O?
GI50 (786-0 renal): 1170 nM; TGI (786-0 renal): 2490 nM; GI50 (A498 renal): 342 nM; TGI (A498 renal): 3450 nM; GI50 (ACHN renal): 1070 nM; TGI (ACHN renal): 2300 nM; GI50 (BT-549 breast): 1370 nM; TGI (BT-549 breast): 3030 nM; GI50 (CAKI-1 renal): 1330 nM; TGI (CAKI-1 renal): 2930 nM; GI50 (COLO 205 colon): 1100 nM; TGI (COLO 205 colon): 2380 nM; GI50 (DU-145 prostate): 1340 nM; TGI (DU-145 prostate): 2670 nM; GI50 (HCC-2998 colon): 1670 nM; TGI (HCC-2998 colon): 3180 nM; GI50 (HCT-116 colon): 252 nM; TGI (HCT-116 colon): 2170 nM; GI50 (HCT-15 colon): 818 nM; TGI (HCT-15 colon): 2110 nM; GI50 (HL-60(TB) leukemia): 621 nM; TGI (HL-60(TB) leukemia): 2370 nM; GI50 (HOP-62 NSCLC): 721 nM; TGI (HOP-62 NSCLC): 2370 nM; GI50 (HOP-92 NSCLC): 126 nM; TGI (HOP-92 NSCLC): 1320 nM; GI50 (HS 578T breast): 1630 nM; TGI (HS 578T breast): 3890 nM; GI50 (HT29 colon): 1500 nM; TGI (HT29 colon): 3120 nM; GI50 (IGROV1 ovarian): 1220 nM; TGI (IGROV1 ovarian): 2800 nM; GI50 (K-562 leukemia): 544 nM; TGI (K-562 leukemia): 3300 nM; GI50 (KM12 colon): 1050 nM; TGI (KM12 colon): 2400 nM; GI50 (LOX IMVI melanoma): 1070 nM; TGI (LOX IMVI melanoma): 2390 nM; GI50 (M14 melanoma): 1310 nM; TGI (M14 melanoma): 2750 nM; GI50 (MALME-3M melanoma): 1280 nM; TGI (MALME-3M melanoma): 2790 nM; GI50 (MCF7 breast): 295 nM; TGI (MCF7 breast): 1920 nM; GI50 (MDA-MB-231 breast): 1170 nM; TGI (MDA-MB-231 breast): 2460 nM; GI50 (MDA-MB-435): 1000 nM; TGI (MDA-MB-435): 2370 nM; GI50 (NCI-H23 lung): 941 nM; TGI (NCI-H23 lung): 2410 nM; GI50 (NCI-H460 lung): 482 nM; TGI (NCI-H460 lung): 1870 nM; GI50 (NCI-H522 lung): 1340 nM; TGI (NCI-H522 lung): 2840 nM; GI50 (NCI/ADR-RES ovarian): 1730 nM; TGI (NCI/ADR-RES ovarian): 3350 nM; GI50 (OVCAR-3 ovarian): 882 nM; TGI (OVCAR-3 ovarian): 2250 nM; GI50 (OVCAR-4 ovarian): 75.5 nM; TGI (OVCAR-4 ovarian): 1820 nM; GI50 (OVCAR-5 ovarian): 1500 nM; TGI (OVCAR-5 ovarian): 2830 nM; GI50 (OVCAR-8 ovarian): 1250 nM; TGI (OVCAR-8 ovarian): 3100 nM; GI50 (PC-3 prostate): 269 nM; TGI (PC-3 prostate): 1990 nM; GI50 (RXF 393 renal): 1530 nM; TGI (RXF 393 renal): 3020 nM; GI50 (SF-268 CNS): 1120 nM; TGI (SF-268 CNS): 2690 nM; GI50 (SF-295 CNS): 1060 nM; TGI (SF-295 CNS): 2470 nM; GI50 (SF-539 CNS): 1120 nM; TGI (SF-539 CNS): 2340 nM; GI50 (SK-MEL-2 melanoma): 1870 nM; TGI (SK-MEL-2 melanoma): 3570 nM; GI50 (SK-MEL-28 melanoma): 1300 nM; TGI (SK-MEL-28 melanoma): 2570 nM; GI50 (SK-OV-3 ovarian): 1340 nM; TGI (SK-OV-3 ovarian): 2630 nM; GI50 (SN12C renal): 1330 nM; TGI (SN12C renal): 2740 nM; GI50 (SNB-19 CNS): 1310 nM; TGI (SNB-19 CNS): 2760 nM; GI50 (SNB-75 CNS): 1100 nM; TGI (SNB-75 CNS): 2300 nM; GI50 (SR leukemia): 224 nM; TGI (SR leukemia): 2110 nM; GI50 (SW-620 colon): 82.9 nM; TGI (SW-620 colon): 2060 nM; GI50 (T-47D breast): 517 nM; TGI (T-47D breast): 2390 nM; GI50 (TK-10 renal): 1300 nM; TGI (TK-10 renal): 2760 nM; GI50 (U251 CNS): 1050 nM; TGI (U251 CNS): 2410 nM; GI50 (UACC-257 melanoma): 678 nM; TGI (UACC-257 melanoma): 2110 nM; GI50 (UACC-62 melanoma): 270 nM; TGI (UACC-62 melanoma): 2030 nM; GI50 (UO-31 renal): 1190 nM; TGI (UO-31 renal): 2820 nM
